Test results taken from patent US6652890B2, “Tea catechins as cancer specific proliferation inhibitors” (Purdue Research Foundation, priority 1999, dated 2003).
“Also recorded” adds a separate entry of the source. Where two headings read alike, the source gives them in different places.

Tests used:
[1] = target: T1, tNOX activity of intact 4T1 mouse mammary cells (Mus musculus, UniProt Q8R0Z2); experiment: Inhibition of tNOX (NADH oxidase) activity of intact 4T1 cells; assay type: cell-based; details: for Inhibition of residual tNOX remaining in the presence of EGCg, EC>90: estimated
T1 construct: endogenous in cells; host or cells: 4T1 mouse mammary carcinoma cells (intact)
T1 sequence (Q8R0Z2 1-598): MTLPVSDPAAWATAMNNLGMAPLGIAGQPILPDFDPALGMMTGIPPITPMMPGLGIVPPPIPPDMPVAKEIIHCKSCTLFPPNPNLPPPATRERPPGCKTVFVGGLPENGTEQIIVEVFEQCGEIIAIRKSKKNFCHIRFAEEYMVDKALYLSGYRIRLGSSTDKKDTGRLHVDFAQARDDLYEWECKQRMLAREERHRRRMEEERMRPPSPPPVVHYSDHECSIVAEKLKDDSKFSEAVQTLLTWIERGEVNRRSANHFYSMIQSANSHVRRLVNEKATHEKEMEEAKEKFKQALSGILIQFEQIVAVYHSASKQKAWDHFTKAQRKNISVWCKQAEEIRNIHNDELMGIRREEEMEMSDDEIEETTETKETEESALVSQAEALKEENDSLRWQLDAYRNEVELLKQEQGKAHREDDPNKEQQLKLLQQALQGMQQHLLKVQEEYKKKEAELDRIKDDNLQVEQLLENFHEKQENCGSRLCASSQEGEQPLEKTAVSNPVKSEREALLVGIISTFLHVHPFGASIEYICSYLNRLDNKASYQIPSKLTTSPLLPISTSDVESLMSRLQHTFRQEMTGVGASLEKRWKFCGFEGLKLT
Protocol: A mouse mammary tumor subpopulation line 4T1 arising from a BALB/cf C3H mouse was grown in DME-10, Dulbecco's modified Eagle's medium supplemented with 5% fetal calf serum, 5% newborn calf serum, 1 mM mixed non-essential amino acids, 2 mM L-glutamine, penicillin (100 units/ml), and streptomycin (100 μg/ml) (Miller et al., 1987, Brit. J. Can. 56:561-569 and Miller et al., 1990, Invasion Metastasis 10:101-112).
NADH oxidase activity was determined as the disappearance of NADH measured at 340 nm in a reaction mixture containing 25 mM Tris-Mes buffer (pH 7.2), 1 mM KCN, and 150 μM NADH at 37° C. Activity was measured using a Hitachi U3210 spectrophotometer with stirring and continuous recording over two intervals of 5 min each. A millimolar extinction coefficient of 6.22 was used to determine specific activity.
NADH oxidase activity was determined as the disappearance of NADH measured at 340 nm in a reaction mixture containing 25 mM Tris-Mes buffer (pH 7.2), 1 mM KCN, and 150 μM NADH at 37° C. Activity was measured at 340 nm with reference at 430 nm using an SLM Aminco DW-2000 spectrophotometer (Milton Roy, Rochester, N.Y.) in the dual beam mode of operation with stirring and continuous recording over two intervals of 5 min each. A millimolar extinction coefficient of 6.22 was used to determine specific activity.

[2] = test system: 4T1 metastatic mouse mammary cancer cells; experiment: Killing of 4T1 metastatic mouse mammary cancer cells in culture; assay type: cell-based; details: EGCg 10^−7 M, EC 10^−4 M, alone or combined
4T1 mouse mammary cancer = experiment: Preliminary animal study, Balb/c mice with 4T1 mouse mammary cancer; assay type: in vivo; details: treated for 5 days, 100 μl/day; glaucarubolone 1 mg, EGCg + EC 0.2 + 1.2 mg per animal
[3] = Inhibition of residual tNOX remaining in the presence of EGCg, EC50, estimated, EGCg given as 0.1 mM (title), 10^−6 M (head), 10^−7 M
[4] = EGCg given as 0.1 mM (title), 10^−6 M (head), 10^−7 M

## Oc1cc(O)c2c(c1)OC(c1ccc(O)c(O)c1)C(O)C2 (racemic) [C, (±) - catechin]
[1]; in the presence of 10^−7 M EGCg, listed as Catechin
  Effect on NOX activity: largely without effect
[1]; in the presence of 10^−7 M EGCg, listed as ±catechin
  Effect on NOX activity: little affected

## Oc1cc(O)c2c(c1)O[C@H](c1ccc(O)c(O)c1)[C@H](O)C2 [EC, (−) - epicatechin]
[2]
  Increase in cell number cm^−2 over 72 h · 10^2: 560 cm^−2 · 10^2
[1]; EGCg concentration 0 M, EGCg alone
  EC50 for tNOX inhibition by (−)-epicatechin: No effect
[1]; EGCg concentration 0 M, supplied as Tegreen™
  EC50 for tNOX inhibition by (−)-epicatechin: No effect
[1]; EGCg concentration 10^−4 M, EGCg alone, read-out: EC50 for tNOX inhibition by (−)-epicatechin
  EC50: 500 ± 400 nM
[1]; EGCg concentration 10^−4 M, supplied as Tegreen™, read-out: EC50 for tNOX inhibition by (−)-epicatechin
  EC50: 300 ± 200 nM
[1]; EGCg concentration 10^−5 M, EGCg alone, read-out: EC50 for tNOX inhibition by (−)-epicatechin
  EC50: 700 ± 300 nM
[1]; EGCg concentration 10^−6 M, EGCg alone, read-out: EC50 for tNOX inhibition by (−)-epicatechin
  EC50: 150 ± 50 nM
[1]; EGCg concentration 10^−6 M, supplied as Tegreen™, read-out: EC50 for tNOX inhibition by (−)-epicatechin
  EC50: 500 ± 400 nM
[1]; EGCg concentration 10^−7 M, EGCg alone, read-out: EC50 for tNOX inhibition by (−)-epicatechin
  EC50: 200 ± 100 nM
[1]; EGCg concentration 10^−7 M, supplied as Tegreen™
  EC50 for tNOX inhibition by (−)-epicatechin: No effect
[1]; EGCg concentration 10^−8 M, EGCg alone
  EC50 for tNOX inhibition by (−)-epicatechin: No effect
[1]; EGCg concentration 10^−8 M, supplied as Tegreen™
  EC50 for tNOX inhibition by (−)-epicatechin: No effect
[1]; in the presence of 10^−7 M EGCg, read-out: EC50 of EC
  EC50: ~200 nM

## O=C(O[C@@H]1Cc2c(O)cc(O)cc2O[C@@H]1c1ccc(O)c(O)c1)c1cc(O)c(O)c(O)c1 [ECG, (−) - epicatechin gallate]
[1]; [3]
  EC50: 500 nM
[1]; [4]
  Inhibition of residual tNOX remaining in the presence of EGCg, EC>90: 10^−6 M

## Oc1cc(O)c2c(c1)O[C@H](c1cc(O)c(O)c(O)c1)[C@H](O)C2 [EGC, (−) - epigallocatechin]
[1]; [3]
  EC50: 1000 nM
[1]; [4]
  Inhibition of residual tNOX remaining in the presence of EGCg, EC>90: 10^−5 M

## O=C(O[C@@H]1Cc2c(O)cc(O)cc2O[C@H]1c1cc(O)c(O)c(O)c1)c1cc(O)c(O)c(O)c1 [GCG, gallocatechin gallate]
[1]; [4]
  Inhibition of residual tNOX remaining in the presence of EGCg, EC>90: Not reached due
[1]; in the presence of 10^−7 M EGCg
  Effect on NOX activity: less effective; also recorded: less affected

## CC1=CC(=O)[C@@H](O)[C@]2(C)[C@H]3[C@@]4(O)OC[C@]35[C@H]([C@@H](C)[C@H]4O)[C@@H](O)C(=O)O[C@@H]5C[C@@H]12 [Glaucarubolone, glaucarubolone]
4T1 mouse mammary cancer
  Tumor wt: 1.5 ± 0.1 g
